How the values were obtained:
hens [1] = type: in vivo, hen; settings: hens
Method: The chosen adult Hyline Brown hens were raised individually in stainless steel wire cages. After 7 days of acclimatization, the chosen hens were randomly divided into groups (n=6–10 for each group). The hens in the delayed neuropathy groups were administered a single dose of 750 mg kg^−1 TOCP and repeated doses of 75 mg kg^−1 malathion by gavage. TOCP and malathion were dissolved in corn oil and administered at 0.65 ml kg^−1. In the HC030031 treatment groups, 100 mg kg^−1 HC030031 was administered by gavage daily beginning at day 0 or day 11. All hens were examined daily for signs of delayed neurotoxicity. A five-point graded scale was used to describe the clinical symptoms of delayed neuropathy, with 0 indicating normal ambulation; (1) suspected ataxia (lack of strength in the legs and tottering); (2) mild ataxia (slow, clumsy and unsteady gait); (3) gross ataxia (waddling gait and staggering and falling despite being active); (4) mild paralysis (typical paralytic posture and lame appearance); and (5) complete paralysis (unable to maintain posture, stand up or move at all), as described previously.

mice = experiment: Transmission electron microscopy of local nerve fibers in mice; type: in vivo, mouse
Method: For mice, subcutaneous tissue from the site of exposure was removed and fixed by immediate immersion in ice-cold 2.5% glutaraldehyde. Subsequently, the samples were post-fixed in 1% OsO4 for 1 h, dehydrated with an ethanol series and embedded in epon resin. Sixty-nanometer ultra-thin sections were double stained with lead citrate and uranyl acetate and examined using an electron microscopy.

hens [2] = experiment: Transmission electron microscopy of hen spinal cord and sciatic nerve; type: in vivo
Method: For hens, the animals were anesthetized with sodium pentobarbital (100 mg kg^−1) and killed 21 days after exposure to TOCP and malathion. They were then perfused with normal saline followed immediately by 4% paraformaldehyde. The lumbar spinal cord at approximately the L2-L3 level and the sciatic nerve of the left leg were removed and fixed by immersion in ice-cold 2.5% glutaraldehyde. Subsequently, the samples were post-fixed in 1% OsO4 for 1 h, dehydrated with the ethanol series, and embedded in epon resin. Sixty-nanometer ultra-thin sections were double stained with lead citrate and uranyl acetate and examined with an electron microscopy.

rTRPA1 = molecular target: T1, rTRPA1 (Rattus norvegicus, UniProt Q6RI86); experiment: Whole-cell patch-clamp, HEK293 cells expressing rTRPA1; type: cell-based
T1 construct: expressed in transfected cells; host or cells: HEK293, transient
T1 sequence (Q6RI86 whole entry): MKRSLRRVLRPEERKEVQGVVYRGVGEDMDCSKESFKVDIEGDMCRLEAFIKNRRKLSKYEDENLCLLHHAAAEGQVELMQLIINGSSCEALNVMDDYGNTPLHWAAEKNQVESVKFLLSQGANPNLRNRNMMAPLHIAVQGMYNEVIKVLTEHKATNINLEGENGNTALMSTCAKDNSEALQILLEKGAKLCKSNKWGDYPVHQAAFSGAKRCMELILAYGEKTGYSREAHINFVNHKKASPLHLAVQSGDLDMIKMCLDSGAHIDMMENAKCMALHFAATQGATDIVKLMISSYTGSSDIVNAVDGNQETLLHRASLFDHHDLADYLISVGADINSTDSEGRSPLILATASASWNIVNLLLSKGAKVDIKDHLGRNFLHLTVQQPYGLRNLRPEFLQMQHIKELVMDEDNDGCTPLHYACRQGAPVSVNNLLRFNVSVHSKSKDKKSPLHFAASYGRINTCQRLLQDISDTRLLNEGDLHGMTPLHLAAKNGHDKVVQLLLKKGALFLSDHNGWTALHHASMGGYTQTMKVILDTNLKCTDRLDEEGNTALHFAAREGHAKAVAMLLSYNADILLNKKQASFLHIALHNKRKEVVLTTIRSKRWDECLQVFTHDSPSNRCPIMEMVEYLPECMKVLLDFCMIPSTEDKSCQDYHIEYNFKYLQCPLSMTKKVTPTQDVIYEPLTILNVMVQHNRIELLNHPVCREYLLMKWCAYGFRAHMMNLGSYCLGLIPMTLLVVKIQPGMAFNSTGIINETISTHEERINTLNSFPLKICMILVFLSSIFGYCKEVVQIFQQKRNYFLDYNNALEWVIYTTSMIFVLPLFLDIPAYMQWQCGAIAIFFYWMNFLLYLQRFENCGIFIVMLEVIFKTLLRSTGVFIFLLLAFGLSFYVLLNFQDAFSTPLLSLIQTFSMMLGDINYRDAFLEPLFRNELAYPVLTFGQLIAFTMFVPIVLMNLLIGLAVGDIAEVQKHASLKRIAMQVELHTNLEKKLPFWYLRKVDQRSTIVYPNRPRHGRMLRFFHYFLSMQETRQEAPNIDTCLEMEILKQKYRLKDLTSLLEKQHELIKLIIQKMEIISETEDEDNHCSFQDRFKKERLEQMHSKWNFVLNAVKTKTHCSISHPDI
Method: Human embryonic kidney 293 (HEK293) cells were cultured in DMEM containing 10% (vol/vol) heat-inactivated fetal bovine serum, 100 units ml^−1 penicillin–streptomycin and 2 mM L-glutamine at 37 °C in a humidity-controlled sterile incubator with 5% CO2. All cell culture reagents were purchased from Life Technologies. HEK293 cells were transfected transiently with the corresponding plasmids using lipofectamine 2000 (Life Technologies). Transfection efficiency was monitored by co-transfecting EGFP plasmid which codes for the enhanced green fluorescent protein. Electrophysiological recordings were performed between 24 and 36 h after transfection.
Whole-cell patch-clamp recordings in DRG neurons (small diameter, […]) and HEK293 cells were operated at room temperature (23–25 °C) using EPC-10 amplifier and Patch Master Software (HEKA). […] Currents were sampled at 10 kHz and low-pass filtered at 2.9 kHz. The internal solution was as follows (in mM): 140 CsCl, 10 HEPES, 5 EGTA, 0.1 CaCl2 and 1 MgCl2, with pH adjusted to 7.2 by CsOH and osmolarity 295–300 mOsm. The calcium-free external solution contained (in mM) 140 NaCl, 5 KCl, 0.5 EGTA, 1 MgCl2, 10 Glucose and 10 HEPES, with pH adjusted to 7.4 by NaOH and osmolarity 300–310 mOsm. The 0.5 mM EGTA was replaced by 2 mM CaCl2 for the recordings in DRG neurons. TRPA1 currents development was monitored with repetitive injections of 300 ms duration voltage ramps from −100 to +100 mV every 2 s and the holding potential was set to 0 mV for 50 ms, existing in both sides of the voltage ramp. To record inward currents in DRG neurons, we conducted voltage clamp at holding membrane potential of −70 mV. Solutions were switched using a gravity-fed continuous focal perfusion system.

Structure (SMILES) | effect on clinical signs of delayed neuropathy induced by TOCP or malathion (hens [1]; HC030031 100 mg kg−1 daily by gavage from day 0 or day 11) | effect on malathion-induced myelin sheath damage (TEM) (mice; HC030031 pretreatment) | effect on TOCP- or malathion-induced nerve injuries (TEM) (hens [2]; HC030031 100 mg kg−1) | block of agonist-elicited rTRPA1 currents (rTRPA1; 10 μM HC030031, malathion or TOCP as agonist) | clinical symptoms of delayed neuropathy (hens [1]; malathion 75 mg kg−1 q.d. for 11 days, day 5) | nerve fiber damage around the injection site (TEM) (mice; WT mice, plantar injection, 5% AITC or 30% malathion) | damage of spinal cord and sciatic nerve (TEM) (hens [2]; 21 days after exposure) | activation of rTRPA1 whole-cell currents (rTRPA1; 30 μM, calcium-free external solution)
CC(C)c1ccc(NC(=O)Cn2cnc3c2c(=O)n(C)c(=O)n3C)cc1 [HC030031] | significantly alleviated | significantly protected the myelin sheath | significantly reduced | blocked |  |  |  | 
CCOC(=O)CC(SP(=S)(OC)OC)C(=O)OCC (stereo not drawn) [malathion, S-[1,2-bis (ethoxycarbonyl)ethyl] O, O-dimethyl phosphorodithioate] |  |  |  |  | slow and clumsy gait | damage of the myelin sheath | severely damaged the spinal cord and sciatic nerve | large activation current

Source: publication PMC5537602, “TRPA1 channel mediates organophosphate-induced delayed neuropathy” (Cell Discovery, 2017)
